This is an account of results in ChEMBL document CHEMBL3507680, “University of Dundee, Gates Library screen for HepG2 cell viability”.

This data set can be described thus: Human HepG2 cell viability assay in 384 well format. Type of data set: toxicity, cell-based. Also noted: dose 125 nL, time 70.5 hour; concentration not given beside the values. To be noted: HepG2 cells, read-out: Inhibition.
With `COCCOCC(=O)N(C)Cc1ccc(OCc2cccs2)cc1`, the cytotoxicity at 70.5 h was -6.68%.

Consider `Cc1nccn1-c1cc(CNC(=O)CC2CCCO2)ccn1` (stereo not drawn), for which the cytotoxicity at 70.5 h is 16.3%.

With `c1ccc(Cc2noc(CN3CCCCC3Cn3cccn3)n2)cc1` (stereo not drawn), the cytotoxicity at 70.5 h was -9.87%. For `Cc1cc(Oc2ccc(NC(=O)C3CC3)cc2)cc(C2CCNCC2)n1`, the cytotoxicity at 70.5 h is -4.04%.

Regarding `Cc1ccc([C@@H]2CN(C(=O)c3ccc[nH]3)C[C@H]2NC(=O)C2CC2)cc1`, the cytotoxicity at 70.5 h was -8.09%. Turning to `O=C(NCC1Cn2nnc(-c3cccc(F)c3)c2CO1)c1ccc[nH]1` (stereo not drawn), the cytotoxicity at 70.5 h was 4.99%. Under `Cc1ccc(OCC(=O)NC2CCN(S(C)(=O)=O)CC2)cc1` stands -1.26%; under `CN1CCN(C(=O)c2n[nH]c3c2CCN(Cc2nccs2)C3)CC1`, -11.9%. The same measure for `Cc1cc(CN2C[C@@H]3COC[C@@H](C(=O)N4CCCCO4)[C@@H]3C2)oc1C`: -6.96%. Regarding `CCOc1cc(C(=O)N2CCN(CC)CC2)cc2occc12`, the cytotoxicity at 70.5 h was -3.29%. For the compound `O=C(c1ncccn1)N1CCC2(CC1)COC(COc1ccccn1)C2` (stereo not drawn), the cytotoxicity at 70.5 h amounted to 10.9%. Under `CNC(=O)Cc1ccc(-n2ccnc2-c2cccc(C(=O)O)c2)cc1` stands 17.5%. The same measure for `CSCC[C@@H](CO)Nc1ccc(-c2nc(-c3ccccc3F)no2)cn1`: -6.28%; for `O=C(NC[C@H]1Cn2c(-c3ccccc3)cnc2CO1)C1CC1`: -7.19%; for `Cc1cc(C(=O)Nc2ccc(OCC3CCOCC3)cc2)[nH]n1`: 1.95%. The same measure for `CNC(=O)[C@@]12CCC3(CCNCC3)[C@@H]1CN(S(C)(=O)=O)C2`: 4.08%.

For the compound `COCc1ccccc1NC(=O)NCc1ccc(OCC2CC2)nc1`, the cytotoxicity at 70.5 h was -7.17%. Under `O=C(Cc1ccsc1)N1CCCC2(COCCN(CC3CC3)C2)C1` (stereo not drawn) stands 1.23%. Under `COCCc1noc(CN2CCCC2Cn2nc(C)cc2C)n1` (stereo not drawn) stands 1.57%; under `Cc1nc(-c2cc(C(=O)N3CCCN(C)CC3)c3ccccn23)cn1C`, -2.18%; under `CNC(=O)NC(=O)C(C)N(C)CCCc1cc(-c2ccccc2)no1` (stereo not drawn), -1.15%. `CCc1nccc(CN2CCC(CNC(=O)[C@H]3CC[C@H](C)CC3)C2)n1` (stereo partly drawn): the cytotoxicity at 70.5 h was found to be 27.6%.

Take `O=C(N1CCOCC1)N1CCN(c2ccncc2Cl)CC1`: the cytotoxicity at 70.5 h turned out to be 1.32%. The same measure for `CC(NC(=O)Nc1cccnc1N1CCCC1)c1ccn(C)c1` (stereo not drawn): 25%. As for `COc1ccc(CN(C(=O)C(C)C)c2cnn(C)c2)c(OC)c1`, the cytotoxicity at 70.5 h was -1.23%.

Regarding `CCc1ncc2c(n1)CN(c1nccc(C3CCCC3)n1)C2`, the cytotoxicity at 70.5 h was -10.9%. The same measure for `CC(=O)N1CC2(CCN(C(=O)N(C)C)CC2)c2cc(C)ccc21`: 5.58%; for `O=C(NC1CCC1)[C@H]1C[C@H]2NCCO[C@@H]2C1`: 4.07%; for `Cc1nccc(C2CCCCN2Cc2ccccc2)n1` (stereo not drawn): -5%.

In the case of `CC(=O)N1CCCN(S(=O)(=O)c2cc3ccccc3o2)CC1`, the cytotoxicity at 70.5 h worked out at 0.284%.

In the case of `CCN(Cc1ccncc1)C(=O)c1cc(C)c(C)c(S(N)(=O)=O)c1`, the cytotoxicity at 70.5 h was -2.98%. Under `Cc1c(-c2c(-c3ccccc3)ncn2[C@H](CO)C(=O)O)cnn1C` stands -7.01%; under `FC(F)(F)c1cc(NCCCn2cccn2)nc(-c2cccnc2)n1`, 22.2%.

On to `NC(=O)CCSc1n[nH]c(-c2ccc3c(c2)CCC3)n1`, for which the cytotoxicity at 70.5 h is -1.76%. Under `Cc1nc(CCNC(=O)C2CCN(C(C)C)CC2)sc1Cl` stands -0.288%; under `CSC1(CNC(=O)N(C)Cc2ccc(C)s2)CCOCC1`, 15.5%; under `CC(=O)NC1CCN(c2cc(-c3ccccc3)nc3c(C)c(C)nn23)C1` (stereo not drawn), -2.22%. Under `COCC1c2c(cnn2C)CCN1C(=O)c1ccc2c(c1)OCO2` (stereo not drawn) stands 1.82%. For `CCN1CCN(c2ccc(C(=O)NCCn3ccnc3)cc2F)CC1`, the cytotoxicity at 70.5 h was -3.77%. The same measure for `CCCc1cc(C(=O)N(Cc2cccnc2)C[C@@H]2CCC(=O)N2)no1`: -6.41%.

With `Cc1cc(C)cc(C(C(=O)O)N(C)CCCN2CCOCC2)c1` (stereo not drawn), the cytotoxicity at 70.5 h was found to be 8.9%. For `COCCn1cc(NC(=O)N(CCC(N)=O)Cc2ccccc2)cn1`, the cytotoxicity at 70.5 h was -14.4%. Regarding `COc1ccc(OC)c(C2CCN(C(=O)C3CCN(C(C)C)CC3)C2)c1` (stereo not drawn), the cytotoxicity at 70.5 h was -8.95%. As to `CN(Cc1cc(C(C)(C)C)n[nH]1)C(=O)c1ccccc1C1CCNC1` (stereo not drawn), the cytotoxicity at 70.5 h is -13.4%.

On to `CC(C)NC(=O)C1CN(C(=O)N(C)C)CC12CCOCC2` (stereo not drawn), for which the cytotoxicity at 70.5 h was -3.34%.

Regarding `CCN(CC1CCCO1)C(=O)CSCC(=O)Nc1ccc(C)cc1` (stereo not drawn), the cytotoxicity at 70.5 h was -1.48%.

For the compound `CCC(C(=O)N1CCS(=O)(=O)CC1)n1cccn1` (stereo not drawn), the cytotoxicity at 70.5 h was -4.81%. Take `Cc1nn(C)cc1S(=O)(=O)N[C@@H]1CC[C@@H](n2ccnc2C)[C@@H]1O`: the cytotoxicity at 70.5 h is 17.7%. Under `CCc1nc(C2CCCN2Cc2nccn2CC(F)(F)F)no1` (stereo not drawn) stands 1.64%; under `CC(=O)NCCNC(=O)CN1CCOC(Cn2cc(C)cn2)C1` (stereo not drawn), -5.91%. As for `Cc1noc(C)c1CCNc1nccc(CCC(F)(F)F)n1`, the cytotoxicity at 70.5 h was -8.75%.

With `CCOCCN1CCN(c2ncccc2C#N)CC1CC` (stereo not drawn), the cytotoxicity at 70.5 h is -3.73%.

With `CCc1nc(CN(C)C2CCN(CCc3ccccn3)C2)no1` (stereo not drawn), the cytotoxicity at 70.5 h is 3.72%.

With `Cc1cccc(CN(C)Cc2nc3c(cnn3C)c(=O)[nH]2)c1`, the cytotoxicity at 70.5 h is -14.2%. The same measure for `Cc1ccc(CN2CC[C@H](O)[C@@H](n3ccc(=O)[nH]c3=O)CC2)cc1`: -2.58%; for `COCCN1C[C@@H]2CN(Cc3cccc(F)c3)CCC[C@]2(C(=O)O)C1`: 20.7%; for `Cc1ccc(-c2nnc(CN3CCNC(=O)C3)o2)cc1`: -4.25%. Under `N#Cc1ccnc(N2CCN(C(=O)Cc3ccc4c(c3)CCO4)CC2)c1` stands -7.76%; under `CC1(C(=O)NCCc2ccc(F)cc2)CCOCC1`, -7.61%. As for `CC(=O)NCCNC(=O)CN1CCCC1c1c(C)nn(C)c1C` (stereo not drawn), the cytotoxicity at 70.5 h was determined as 25.7%. Regarding `CC(C)c1cccc(CSc2nnc(Cn3cncn3)o2)n1`, the cytotoxicity at 70.5 h was -7.35%. In the case of `Cc1cc(CC(C)NC(=O)c2cccc(CC3CCNCC3)c2)[nH]n1` (stereo not drawn), the cytotoxicity at 70.5 h is -2.93%. Consider `Cc1ccc(O)c(CNC2CCc3nc(C)nn3C2)n1` (stereo not drawn), for which the cytotoxicity at 70.5 h was -0.718%. In the case of `CC(C)(C)C(=O)N1CC[C@@H]2[C@H](CC1)N(S(C)(=O)=O)CCS2(=O)=O`, the cytotoxicity at 70.5 h was -10.7%. Under `COC(=O)CCn1ccc(=O)c2cc(OC)ccc21` stands -0.582%; under `CC(C)[C@H]1COC(=O)N1Cc1nccn1C1CC1`, -3.35%; under `Cc1ccc2c(n1)N(CC1CC1)CCN(C(=O)c1ccncc1F)C2`, 0.364%. The same measure for `CC(C)(C)c1nccc(N2CCN(C3CCS(=O)(=O)C3)CC2)n1` (stereo not drawn): -0.27%; for `Cc1nc(CNC(C(=O)N2CCOCC2)C(C)C)oc1C` (stereo not drawn): -5.87%; for `O=C(O)CCc1cc2n(n1)CCCN(C(=O)c1ccc3cc[nH]c3c1)C2`: -14%. The same measure for `CSc1nccc(N2CCC(NCc3ccc4nsnc4c3)CC2)n1`: 23.1%; for `O=C(NCCCn1nc2ccccn2c1=O)Nc1ccccc1`: 16.7%; for `COCCN1CCCn2c(nc(CNC(=O)COC)cc2=O)C1`: -2.45%. With `CO[C@H]1[C@@H]2CC[C@H]1CN(c1nc(C)nc3sccc13)C2`, the cytotoxicity at 70.5 h turned out to be 6.45%. The same measure for `O=C(NCCNc1ccc(C(F)(F)F)cn1)c1cc(Cl)ccc1F`: -4.63%. For `C/C=C(\C)CN1C[C@H](c2cccc(OC)c2)[C@@H](N)C1`, the cytotoxicity at 70.5 h is -5.71%. Under `O=C(c1cnc(OCC(F)(F)F)c(Cl)c1)N1CCc2ccc(O)cc2C1` stands -18.4%; under `Cn1cc(CN2CCn3c(CNC(=O)c4cccn4C)cnc3C2)cn1`, 4.31%. `O=C(c1cncnc1)N1C[C@@H]2CC[C@H](Oc3cccc(F)c3)[C@@H]2C1`: the cytotoxicity at 70.5 h is -8.85%.

Consider `COCC(C)(CCO)NC(=O)Nc1cccc(Br)c1C` (stereo not drawn), for which the cytotoxicity at 70.5 h was 7.98%. The same measure for `Cc1cc(C(=O)N2CCCC(n3cncn3)C2)c(C)n1C1CC1` (stereo not drawn): -1.59%. Under `CN(C)[C@@H]1CCN(C(=O)Cc2cccs2)[C@H]1Cc1cnn(C)c1` stands -8.18%; under `Cn1cc(C2CCCN2C(=O)CCc2cnn(-c3ccccc3)c2)cn1` (stereo not drawn), -3.27%; under `CC(=O)NC(Cc1c[nH]c2cc(F)ccc12)C(=O)Nc1nncs1` (stereo not drawn), -2.58%. Regarding `Cc1csc(N2CCN(Cc3cccnc3)CC2C)n1` (stereo not drawn), the cytotoxicity at 70.5 h is -19.6%.

As to `Cc1nc(C2CCCN(C(=O)CCCn3cccn3)C2)no1` (stereo not drawn), the cytotoxicity at 70.5 h is -11.8%. The same measure for `Cc1ccc(Nc2nccc(C3CCCN(CC(=O)N(C)C)C3)n2)nc1` (stereo not drawn): -16.1%. The same measure for `CC(C)c1nc(CC(=O)N(C)Cc2ccc3c(c2)OCO3)cs1`: -6.29%; for `CCN(Cc1nc2c(cnn2C)c(=O)[nH]1)c1ccccc1`: 3.68%; for `Cc1ccc(NC2CCN(C(=O)c3c(C)oc(C)c3C)CC2)nn1`: -10.8%. Under `Cc1ncc2c(n1)CN(C(C(N)=O)c1ccc(F)cc1)CC2` (stereo not drawn) stands -2.82%; under `Cc1c(CNC(=O)Nc2cccc3c2CCN3C)cnn1C`, -3.95%; under `COCCNC(=O)CN(C)Cc1ccc(F)cc1Cl`, -10.1%. Take `CN1CCCC2(CCN(C(=O)c3ccncc3)C2)C1` (stereo not drawn): the cytotoxicity at 70.5 h is 7.77%. The same measure for `Cc1ncccc1CNCC1CCCN1c1cccnn1` (stereo not drawn): -3.29%; for `O=C(O)c1ccccc1CN1CCC2(Cc3ccccc3CNC2=O)C1` (stereo not drawn): -5.35%. Consider `CCc1n[nH]c(C2CN(Cc3nnc(C4CCC4)o3)CCO2)n1` (stereo not drawn), for which the cytotoxicity at 70.5 h was -7.61%. Under `Cc1nn(C)cc1C(=O)N1CCCC(c2nccn2Cc2cscn2)C1` (stereo not drawn) stands -7.69%.
